Data reported in patent publication US6998410B2, “Compositions” (Altana Pharma AG, priority 1997, dated 2006).

Test system: Adult Sprague Dawley rats lavaged until their endogenous lung surfactant is washed out
Assay: Arterial oxygen partial pressure (PaO2) in lung-lavaged, ventilated rats (animal model of ARDS) after intratracheal instillation
Format: in vivo, rat (Sprague Dawley)
Conditions: for PaO2, average value (± standard deviation): Compound A 600 μg/kg alone
From the text: Adult Sprague Dawley rats are artificially ventilated with pure oxygen and a positive end-expiratory pressure (PEEP; in order to guarantee oxygenation of the rats) and lavaged until their endogenous lung surfactant is washed out (D. Häfner, U. Kilian and R. Beume: Comparison of four lung surfactant preparations in an animal model of adult respiratory distress syndrome (ARDS). Am. Rev. Respir. Dis. 1993, 147:A719; D. Häfner, P. -G. Germann, D. Hauschke, Pulmonary Pharmacology (1994) 7, 319–332). This is manifested by the fact that in the animals the preliminary values of the arterial oxygen partial pressure (PaO2) of 500–550 mm Hg (in the case of pure oxygen ventilation and PEEP) decrease to values of 50–110 mm Hg. Animals of the control group, which are not treated with lung surfactant, remain with their PaO2 at these low values throughout the observation period. Sixty minutes after the PaO2 has decreased to these values, lung surfactant or lung surfactant together with N-(3,5-dichloropyrid-4-yl)-3-cyclopropylmethoxy-4-difluoromethoxybenzamide is instilled intratracheally. The blood gases are determined 30 and 120 minutes after instillation.
In Table 1 and Table 2 which follow, in line A the average values (±standard deviation) of the PaO2 are indicated in mm Hg for the time 30 minutes (constant PEEP of 8 cm H2O) after intratracheal instillation and in line B 120 minutes after intratracheal instillation. […] This follows by comparison with the untreated control animals. […] It is therefore possible to save a part of the very expensive lung surfactant, or else to obtain an increased action of each individual component.

O=C(Nc1c(Cl)cncc1Cl)c1ccc(OC(F)F)c(OCC2CC2)c1 [Compound A, N-(3,5-dichloropyrid-4-yl)-3-cyclopropylmethoxy-4-difluoromethoxybenzamide]
PaO2, average value (± standard deviation) (line A: 30 minutes after intratracheal instillation (constant PEEP of 8 cm H2O)): 59 ± 12 mm Hg
PaO2, average value (± standard deviation) (line B: 120 minutes after intratracheal instillation): 75 ± 24 mm Hg
Influence on the PaO2 (in words) (sole administration, by comparison with the untreated control animals): no influence on the PaO2
